In patent US12180159B2, “Activators of the unfolded protein response” (The Board of Trustees of the University of Illinois, priority 2018, dated 2024):
Several values for one entry are separate records, joined by “and”; a condition that tells them apart may be missing. Equal entries are not always repeated.

Legend:
[1] = system: (BHPI-sensitive) parental T47D cells; experiment: Growth of parental T47D cells (MTS); type: cell-based, human; conditions: 100 nM and 1 μM, 4 days
Method: ERα containing T47D human breast cancer cells able to survive in 1 μM BHPI were selected by clonal outgrowth. The effect of 100 nM and 1 μM BHPI and (−)-105 on growth of the (BHPI-sensitive) parental T47D cells and partially BHPI-resistant T47D clones 1, 3, 8, and 11 was evaluated. 4,000 cells/well were plated. Cell number was determined by MTS assay from a standard curve of absorbance versus cell number. […] Thus, in 4 days (−)-105 killed some, but not all, of the resistant cells.

[2] = system: D538G mutant tumors (TDG cell line); experiment: TDG-luc orthotopic tumor model; type: in vivo, mouse
Description: FIG. 41. SERK-F6 eradicates mutant ERα primary and metastatic breast cancer. a-c, TYS-luc. orthotopic tumors were established in NSG ovariectomized mice (no E2 pellet, 60 days to establish) and dosed daily as indicated (n=5-6). b, representative examples of bioluminescence images of SERK-F6 treated mice (7 days). d,e, TDG-luc. orthotopic tumors were established in NSG ovariectomized mice (no E2 pellet, 120 days to establish) and dosed daily as indicated (n=4-5). e, Bioluminescence image of SERK-F6 treated mouse with TDG-luc. tumor burden after 7 days. f, MYS-luc. orthotopic tumors were established in NSG ovariectomized mice (no E2 pellet, 45 days to establish) and dosed daily as indicated (n=4-5). g, MDG-luc. orthotopic tumors were established in NSG ovariectomized mice (no E2 pellet, 45 days to establish) and dosed daily as indicated (n=4-5). h, Metastatic model with MDG-luc. cells injected into the tail-vein of NSG ovariectomized mice (no E2 pellet, 1.5 months to establish) and mice were dosed daily as indicated (n=4-5).
FIG. 4A illustrates how IC50's for cell death were determined. 4B tests the ability BHPI, (−)-105, and 01-15 to kill. […] Large orthotopic breast tumors of TYD-Luc cells (T47DERαD538G-luciferase human breast cancer cells) were allowed to form for 4 months in immune suppressed NSG mice. […]

[3] = system: TYS-Luc (T47DERαY537S-Luc human breast cancer cells) orthotopic tumors; experiment: Orthotopic TYS-Luc mouse xenograft, bioluminescent imaging (BLI) of tumor flux; type: in vivo
Method: In a treatment and vehicle-controlled mouse tumor study, human breast cancer cells were engineered to contain both the lethal ERαY537S mutation found in metastatic breast cancer, and the gene for firefly luciferase—when the appropriate chemical is added, the firefly luciferase breaks down the chemical and light is produced. Using a sensitive detector called an imaging system, this allows us to image the tumors inside live mice. This is called bioluminescent imaging, or BLI. Large tumors were allowed to form. Then (−)-105 was injected daily under the skin for three weeks. Using the imaging system, the effect of (−)-105 on the tumors was monitored. At the same time the effect of the vehicle in which (−)-105 was dissolved on tumors was also monitored.
A study was performed to determine what happens after stopping treatment with (−)-105 (Table 2). The study was designed to show whether the micro-tumors would remain dormant, or whether they would regrow. At the end of the three-week treatment, there is residual material that gives off a tiny amount of light which are termed “micro-tumors”. Based on sensitivity of the imaging system, it is believed these micro-tumors contain anywhere from 0-˜1,000 cancer cells; the micro-tumors will not be visible to the naked eye. Seeing them requires the powerful imaging system, or a microscope. To test whether these cells are either dead, or no longer dividing and are dormant, the cells two and 4 weeks after they stopped receiving any treatment were imaged. This study tested whether growing cancer cells have been eradicated; this study continues.
In a 3-week study, large breast tumors were present at start of treatment and regressed as shown in the image of FIG. 17. The study was performed using Orthotopic TYS-Luc (injected cells: T47DERα Y537-Luc human breast cancer cells), e.g., the most lethal ERα mutation in human in metastatic breast cancer. Tumors were grown in NSG mice. Further details are provided in the Examples.
Experimental Details of the Xenografts: TYS-Luc cells (5,000,000 cells in Matrigel) were injected into the upper mammary fat pad of ovariectomized female NSG (SCID) mice (Jackson labs). After 10 weeks, on day 0, large tumors (size range: 100-600 mm^3) were present. Mice were treated with the vehicle used to dissolve (−)-105, or (−)-105 at 40 mg/kd daily by subcutaneous injection. For bioluminescent imaging (BLI) of the tumors, the mice were anesthetized with isoflurane and Lucerfin, the luciferase substrate, was injected into the mice. Flux, the total member of light photons hitting the detector in one second was measured using an IVIS ([…]). Shown is the flux (in millions of units per second) for the entire area containing each tumor, or an equivalent area when the tumor is tiny or undetectable and the percent change in tumor size at each time a measurement was taken (day 0, day 3, week 1, week 2, week 3). Then treatment was stopped, and another measurement was taken two weeks letter. Note that tumors were also measured with calipers. […] After three days all the (−)-105 tumors has declined to undetectable using calipers.

TYS-Luc cells = experiment: Long-term cell culture experiment, TYS-Luc cells (MTS); type: cell-based, human; conditions: 2 weeks 1 μM, then 4 weeks without drug
Method: To simulate the effect of several weeks of treatment of a tumor in a mouse xenograft, long-term cell culture experiments were performed. TYS-Luc cells (T47DERαY537S-Luc cells; ERαY537S is the most lethal ERα mutation seen in metastatic breast cancer) were plated at 4,000 cells/well in 96 well plates. […] After 2 weeks (medium change every 2 days) cell number was determined using MTS and a standard curve of absorbance versus cell number for TYS-Luc cells. Notes: (i) Bars denote the BHPI and (−)-105 arms of the experiment. No drug is present during regrow. […] This allows any surviving cells to regrow. After 4 weeks the cells were assayed using MTS. […] (Note: Visual inspection of the wells confirmed that there were no cells in the well treated for 2 weeks with active (−)-105.) To test whether the cells that regrew after BHPI treatment were resistant to BHPI they were re-treated for another cycle (BHPI Retreat) and shown to retain sensitivity to BHPI killing. (n=8 biological replicates±SEM.

[4] = after 3 days of treatment, all 5 mice

O=C1Nc2c(C(F)(F)F)cccc2C1(c1ccc(O)cc1)c1ccc(OC(F)(F)F)cc1 (single isomer, unassigned; (-)) [(−)-105, 3-(4-hydroxyphenyl)-3-(4-(trifluoromethoxy)phenyl)-7-(trifluoromethyl)indolin-2-one]
growth / killing of parental T47D cells [1]: killed all the T47D cells | efficacy when administered orally ([2]; 40 mg/kg oral gavage, 3 days): effective when administered orally | effect on D538G mutant tumors ([2]; mouse, in vivo): destruction of D538G mutant tumors | micro-tumor regrowth after stopping treatment ([3]; 4 weeks after stopping treatment): NO “MICRO-TUMOR” REGROWTH | tumor shrinkage (regression) by BLI, 4 of the 5 tumors ([3]; after 3 days of treatment, 4 of 5 tumors): more than 99.9% | tumor shrinkage (regression) by BLI, all five tumors [3, 4]: more than 99% | tumor size using calipers [3, 4]: undetectable | tumor shrinkage by BLI, 3 of the remaining 4 mice ([3]; after three weeks): more than 99.9% | tumor change in one mouse (complete regression) ([3]; after three weeks, one mouse): −100% | Day 0 Flux ([3]; per mouse, day 0 (start of treatment, baseline)): 2,130 millions of photons/sec and 277 millions of photons/sec and 72.6 millions of photons/sec and 1,880 millions of photons/sec and 1,650 millions of photons/sec | Day 14 % Change in Tumor Flux ([3]; per mouse, day 14 vs day 0): 99.66% | health of the treated mice / toxicity ([3]; three-week treatment): No toxicity | micro-tumor regrowth after stopping treatment ([3]; two weeks after treatment was stopped): the microtumors had not started growing again | tumor size using calipers ([3]; within seven days, all 5 tumors): undetectable | regrowth of cells after treatment (TYS-Luc cells): no regrowth
